In ChEMBL document CHEMBL5120922, “Discovery, Optimization, and Evaluation of Potent and Selective PI3Kδ-γ Dual Inhibitors for the Treatment of B-cell Malignancies” (J Med Chem, 2022):

How the values were obtained:
DOHH-2 = assay: Antiproliferative activity against human DOHH-2 cells assessed as cell growth inhibition measured after 72 hrs by MTT assay; assay type: functional, cell-based; details: DOHH-2, 72 h
[1] = molecular target: T1, Phosphatidylinositol 4,5-bisphosphate 3-kinase catalytic subunit gamma isoform (Homo sapiens, UniProt P48736); assay: Inhibition of N-terminal His6-tagged recombinant full length human PI3Kgamma expressed in baculovirus infected Sf21 insect cells at 0.1 uM by HTRF assay relative to control
T1 sequence (P48736 whole entry, looked up, canonical isoform): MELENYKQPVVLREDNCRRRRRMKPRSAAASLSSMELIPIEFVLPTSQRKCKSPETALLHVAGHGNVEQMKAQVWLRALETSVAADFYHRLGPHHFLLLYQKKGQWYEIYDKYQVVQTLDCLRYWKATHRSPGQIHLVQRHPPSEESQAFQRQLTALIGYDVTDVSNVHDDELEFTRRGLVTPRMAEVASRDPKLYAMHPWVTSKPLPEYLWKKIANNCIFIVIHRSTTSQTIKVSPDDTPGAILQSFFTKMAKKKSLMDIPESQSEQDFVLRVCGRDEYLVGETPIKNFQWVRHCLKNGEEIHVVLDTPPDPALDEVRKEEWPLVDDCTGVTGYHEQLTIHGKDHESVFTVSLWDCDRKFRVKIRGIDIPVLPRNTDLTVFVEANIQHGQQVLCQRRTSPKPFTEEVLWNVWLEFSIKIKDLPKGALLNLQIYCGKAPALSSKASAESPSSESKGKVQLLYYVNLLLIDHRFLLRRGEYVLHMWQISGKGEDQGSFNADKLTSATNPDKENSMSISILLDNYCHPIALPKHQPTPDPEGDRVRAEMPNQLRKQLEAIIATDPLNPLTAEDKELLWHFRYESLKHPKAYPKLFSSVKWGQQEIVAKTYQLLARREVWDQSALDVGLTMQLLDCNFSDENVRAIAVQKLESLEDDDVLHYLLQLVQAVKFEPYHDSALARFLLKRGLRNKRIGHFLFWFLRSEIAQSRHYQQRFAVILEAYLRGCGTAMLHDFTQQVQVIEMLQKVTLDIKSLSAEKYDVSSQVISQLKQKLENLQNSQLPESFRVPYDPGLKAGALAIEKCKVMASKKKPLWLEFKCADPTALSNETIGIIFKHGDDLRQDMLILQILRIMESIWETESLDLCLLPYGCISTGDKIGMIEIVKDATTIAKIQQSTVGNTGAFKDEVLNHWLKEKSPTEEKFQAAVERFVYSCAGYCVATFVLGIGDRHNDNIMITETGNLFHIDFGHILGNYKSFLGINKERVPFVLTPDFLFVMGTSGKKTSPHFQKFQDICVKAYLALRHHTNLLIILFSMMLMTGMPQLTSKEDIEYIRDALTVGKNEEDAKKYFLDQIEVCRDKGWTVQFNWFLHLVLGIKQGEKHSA

[2] = molecular target: Phosphatidylinositol 4,5-bisphosphate 3-kinase catalytic subunit beta isoform (Homo sapiens, UniProt P42338); assay: Inhibition of N-terminal His6-tagged recombinant full length human PI3Kbeta expressed in baculovirus infected Sf21 insect cells at 1 uM by HTRF assay relative to control
Phosphatidylinositol 4,5-bisphosphate 3-kinase catalytic subunit beta isoform, sequence (P42338 whole entry, looked up, canonical isoform): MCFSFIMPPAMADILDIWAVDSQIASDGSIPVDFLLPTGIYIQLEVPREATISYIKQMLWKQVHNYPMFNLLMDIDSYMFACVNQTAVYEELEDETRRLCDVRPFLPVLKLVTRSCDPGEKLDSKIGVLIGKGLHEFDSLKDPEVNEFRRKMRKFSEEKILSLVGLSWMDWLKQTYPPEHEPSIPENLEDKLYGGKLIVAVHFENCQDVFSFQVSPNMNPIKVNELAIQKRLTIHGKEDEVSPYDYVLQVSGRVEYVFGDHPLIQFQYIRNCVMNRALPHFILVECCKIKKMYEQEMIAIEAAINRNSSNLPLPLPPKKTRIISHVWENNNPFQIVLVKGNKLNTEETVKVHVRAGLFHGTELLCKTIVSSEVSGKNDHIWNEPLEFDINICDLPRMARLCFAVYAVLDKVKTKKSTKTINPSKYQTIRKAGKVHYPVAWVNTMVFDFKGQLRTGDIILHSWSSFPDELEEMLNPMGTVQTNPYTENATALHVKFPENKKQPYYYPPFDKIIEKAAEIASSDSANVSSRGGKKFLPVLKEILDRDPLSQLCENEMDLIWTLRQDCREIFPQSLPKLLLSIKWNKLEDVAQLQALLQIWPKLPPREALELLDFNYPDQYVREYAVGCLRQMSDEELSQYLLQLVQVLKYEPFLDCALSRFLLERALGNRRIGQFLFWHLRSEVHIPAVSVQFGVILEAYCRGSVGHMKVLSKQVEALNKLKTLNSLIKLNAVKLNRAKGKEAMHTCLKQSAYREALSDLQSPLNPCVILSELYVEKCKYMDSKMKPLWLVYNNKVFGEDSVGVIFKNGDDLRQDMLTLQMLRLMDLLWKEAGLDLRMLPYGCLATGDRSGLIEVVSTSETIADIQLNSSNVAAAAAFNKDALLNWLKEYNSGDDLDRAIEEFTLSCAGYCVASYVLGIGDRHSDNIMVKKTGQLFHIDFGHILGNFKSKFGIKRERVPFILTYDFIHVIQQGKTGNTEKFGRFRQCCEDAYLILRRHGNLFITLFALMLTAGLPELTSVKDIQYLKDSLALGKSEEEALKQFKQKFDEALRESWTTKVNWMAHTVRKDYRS

SUD4 = assay: Antiproliferative activity against human SU-DHL-4 cells assessed as cell growth inhibition measured after 72 hrs by MTT assay; assay type: functional, cell-based; details: SU-DHL-4, 72 h
[3] = molecular target: Phosphatidylinositol 4,5-bisphosphate 3-kinase catalytic subunit alpha isoform (Homo sapiens, UniProt P42336); assay: Inhibition of N-terminal His6-tagged recombinant full length human PI3Kalpha expressed in baculovirus infected Sf21 insect cells at 1 uM by HTRF assay relative to control
Phosphatidylinositol 4,5-bisphosphate 3-kinase catalytic subunit alpha isoform, sequence (P42336 whole entry, canonical isoform): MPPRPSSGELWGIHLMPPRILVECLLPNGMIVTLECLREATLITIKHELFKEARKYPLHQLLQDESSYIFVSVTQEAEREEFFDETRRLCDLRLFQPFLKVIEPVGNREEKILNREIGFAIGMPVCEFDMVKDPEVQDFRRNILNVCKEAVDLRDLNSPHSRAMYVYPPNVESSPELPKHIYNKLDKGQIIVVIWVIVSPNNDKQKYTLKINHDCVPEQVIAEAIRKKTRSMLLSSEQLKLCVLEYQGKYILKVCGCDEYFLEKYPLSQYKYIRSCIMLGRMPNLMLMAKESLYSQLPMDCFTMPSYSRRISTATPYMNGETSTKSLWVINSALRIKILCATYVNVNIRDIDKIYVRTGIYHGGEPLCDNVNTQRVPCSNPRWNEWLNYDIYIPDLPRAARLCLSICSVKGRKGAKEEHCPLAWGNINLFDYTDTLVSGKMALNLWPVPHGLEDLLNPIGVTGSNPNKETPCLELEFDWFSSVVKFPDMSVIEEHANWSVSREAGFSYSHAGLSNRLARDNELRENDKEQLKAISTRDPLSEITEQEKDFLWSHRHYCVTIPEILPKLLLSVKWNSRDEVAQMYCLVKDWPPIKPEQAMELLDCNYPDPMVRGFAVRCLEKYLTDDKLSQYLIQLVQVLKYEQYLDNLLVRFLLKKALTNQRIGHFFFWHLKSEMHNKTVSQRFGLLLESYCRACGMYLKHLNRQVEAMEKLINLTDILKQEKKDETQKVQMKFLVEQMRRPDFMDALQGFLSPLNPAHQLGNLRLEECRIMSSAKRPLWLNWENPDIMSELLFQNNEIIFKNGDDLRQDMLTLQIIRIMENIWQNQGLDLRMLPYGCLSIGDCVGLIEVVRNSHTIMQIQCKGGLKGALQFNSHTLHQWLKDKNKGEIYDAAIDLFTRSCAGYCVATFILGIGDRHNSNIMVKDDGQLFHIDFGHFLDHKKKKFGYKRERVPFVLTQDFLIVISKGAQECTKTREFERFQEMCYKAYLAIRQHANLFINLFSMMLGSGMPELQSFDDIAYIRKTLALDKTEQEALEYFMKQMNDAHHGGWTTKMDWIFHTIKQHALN

SU-DHL-6 = assay: Antiproliferative activity against human SU-DHL-6 cells assessed as cell growth inhibition measured after 72 hrs by MTT assay; assay type: functional, cell-based; details: SU-DHL-6, 72 h
[4] = molecular target: T2, Phosphatidylinositol 4,5-bisphosphate 3-kinase catalytic subunit delta isoform (Homo sapiens) (UniProt O00329); assay: Inhibition of N-terminal His6-tagged recombinant full length human PI3Kdelta expressed in baculovirus infected Sf21 insect cells at 0.1 uM by HTRF assay relative to control
T2 sequence (whole entry): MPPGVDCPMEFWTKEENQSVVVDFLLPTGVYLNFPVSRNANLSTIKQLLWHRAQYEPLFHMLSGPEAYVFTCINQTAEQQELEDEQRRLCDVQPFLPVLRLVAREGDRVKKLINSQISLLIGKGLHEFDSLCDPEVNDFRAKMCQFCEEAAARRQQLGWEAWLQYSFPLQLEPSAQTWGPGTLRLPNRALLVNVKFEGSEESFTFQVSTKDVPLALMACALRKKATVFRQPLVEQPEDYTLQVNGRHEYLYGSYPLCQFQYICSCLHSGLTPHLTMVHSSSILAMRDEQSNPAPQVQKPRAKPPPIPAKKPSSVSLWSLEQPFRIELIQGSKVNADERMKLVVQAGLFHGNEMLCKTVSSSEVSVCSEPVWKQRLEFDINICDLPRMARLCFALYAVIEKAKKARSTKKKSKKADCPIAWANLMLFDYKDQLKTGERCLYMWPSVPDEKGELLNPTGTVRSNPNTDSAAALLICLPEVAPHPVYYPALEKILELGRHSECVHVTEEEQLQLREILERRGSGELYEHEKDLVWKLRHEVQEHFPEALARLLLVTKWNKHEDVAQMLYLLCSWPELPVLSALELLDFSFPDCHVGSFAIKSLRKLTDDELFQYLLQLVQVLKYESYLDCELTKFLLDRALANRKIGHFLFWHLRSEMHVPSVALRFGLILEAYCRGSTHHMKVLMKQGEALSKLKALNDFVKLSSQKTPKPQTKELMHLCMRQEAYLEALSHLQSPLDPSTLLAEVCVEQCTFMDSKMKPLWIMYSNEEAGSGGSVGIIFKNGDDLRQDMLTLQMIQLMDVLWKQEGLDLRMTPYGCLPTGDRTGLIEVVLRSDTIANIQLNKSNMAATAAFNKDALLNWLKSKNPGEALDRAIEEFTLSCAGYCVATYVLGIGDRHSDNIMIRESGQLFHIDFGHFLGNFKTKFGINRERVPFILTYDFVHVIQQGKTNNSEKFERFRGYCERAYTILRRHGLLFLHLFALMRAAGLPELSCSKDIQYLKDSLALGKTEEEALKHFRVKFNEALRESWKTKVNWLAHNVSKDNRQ

[5] = molecular target: T1, Phosphatidylinositol 4,5-bisphosphate 3-kinase catalytic subunit gamma isoform; assay: Inhibition of N-terminal His6-tagged recombinant full length human PI3Kgamma expressed in baculovirus infected Sf21 insect cells at 1 uM by HTRF assay relative to control
[6] = molecular target: T2, Phosphatidylinositol 4,5-bisphosphate 3-kinase catalytic subunit delta isoform (Homo sapiens); assay: Inhibition of N-terminal His6-tagged recombinant full length human PI3Kdelta expressed in baculovirus infected Sf21 insect cells at 1 uM by HTRF assay relative to control

| SMILES | inhibition [1] [%] | inhibition [2] [%] | inhibition [3] [%] | IC50 (SU-DHL-6) [nM] | inhibition [4] [%] | inhibition [5] [%] | inhibition [6] [%] | IC50 (DOHH-2) [nM] | IC50 (SUD4) [nM] |
| --- | --- | --- | --- | --- | --- | --- | --- | --- | --- |
| C[C@H]1CC[C@@H](c2nc3cccc(-c4cnn(C5CC5)c4)c3c(=O)n2-c2cccc(F)c2)N1c1nc(N)nc(N)c1C#N | 29 | 59 | 25 | 250 | 16 |  |  | 970 | 660 |
| COc1cccc(C#Cc2cccc3nc([C@@H]4CC[C@H](C)N4c4nc(N)nc(N)c4C#N)n(-c4ccccc4)c(=O)c23)c1 | 35 | 42 | 16 | 670 | 9 |  |  | 450 | 510 |
| C[C@H]1CC[C@@H](c2nc3cccc(Cl)c3c(=O)n2-c2ccccc2)N1c1nc(F)nc2[nH]cnc12 | 76 | -1 | 49 | 490 | 27 | 34 | 13 | 910 | 730 |
| C[C@H]1CC[C@@H](c2nc3ccc(F)cc3c(=O)n2-c2cccnc2)N1c1nc(N)nc(N)c1C#N | 91 | 98 | 63 | 2660 | 43 |  |  | 1890 | 1220 |
| COc1ccc(C#Cc2cccc3nc([C@@H]4CC[C@H](C)N4c4nc(N)nc(N)c4C#N)n(-c4ccccc4)c(=O)c23)cc1 | 83 | 62 | 25 | 1040 | 43 |  |  | 3980 | 1050 |
| N#Cc1c(N)nc(N)nc1N1[C@H](c2nc3cccc(F)c3c(=O)n2-c2cc(F)cc(F)c2)C[C@@H]2CCCC[C@@H]21 | 93 | 98 | 84 | 1480 | 82 | 75 | 23 | 2470 | 1450 |
| C[C@H](Nc1ncnc2nc[nH]c12)c1cc2cccc(Cl)c2c(=O)n1-c1ccccc1 [DUVELISIB] |  |  |  | 390 |  |  |  | 200 | 270 |
| C[C@H]1CC[C@@H](c2nc3ccc(Cl)cc3c(=O)n2-c2cccnc2)N1c1nc(N)nc(N)c1C#N | 89 | 100 | 56 | 770 | 89 |  |  | 1050 | 900 |
| C[C@H]1CC[C@@H](c2nc3c(F)cccc3c(=O)n2-c2cccnc2)N1c1nc(N)nc(N)c1C#N | 52 | 23 | 30 | 920 | 6 |  |  | 440 | 620 |
| C[C@H]1CC[C@@H](c2nc3cccc(Cl)c3c(=O)n2-c2cccc(F)c2)N1c1nc(N)nc2[nH]cnc12 | 1 | 57 | 58 | 480 | 5 |  | -4 | 2610 | 350 |
| C[C@H]1CC[C@@H](c2nc3cc(F)ccc3c(=O)n2-c2cccnc2)N1c1nc(N)nc(N)c1C#N | 70 | 44 | 39 | 1710 | 7 |  |  | 570 | 580 |

Now from value to molecule, other results behind:

| inhibition [1] [%] | inhibition [2] [%] | inhibition [3] [%] | IC50 (SU-DHL-6) [nM] | inhibition [4] [%] | inhibition [5] [%] | inhibition [6] [%] | SMILES | IC50 (DOHH-2) [nM] | IC50 (SUD4) [nM] |
| --- | --- | --- | --- | --- | --- | --- | --- | --- | --- |
| 29 | 77 | 14 | 390 |  |  |  | COc1ccc(-c2cccc3nc([C@@H]4CC[C@H](C)N4c4nc(N)nc(N)c4C#N)n(-c4ccccc4)c(=O)c23)cn1 | 630 | 600 |
| 23 | 54 | 10 | 150 | 8 |  |  | COc1cncc(-c2cccc3nc([C@@H]4CC[C@H](C)N4c4nc(N)nc(N)c4C#N)n(-c4cccnc4)c(=O)c23)c1 | 810 | 590 |
| 34 | 63 | 31 | 480 | 21 |  |  | C[C@H]1CC[C@@H](c2nc3cccc(-c4cnn(C5CC5)c4)c3c(=O)n2-c2cccnc2)N1c1nc(N)nc(N)c1C#N | 2130 | 700 |
| 21 | -3 | 20 | 230 | -2 |  |  | Cc1cccc2nc([C@@H]3CC[C@H](C)N3c3nc(N)nc(N)c3C#N)n(-c3cccnc3)c(=O)c12 | 130 | 50 |
| 20 | 46 | 26 | 470 |  |  |  | C[C@H]1CC[C@@H](c2nc3cccc(-c4cnn(C(F)F)c4)c3c(=O)n2-c2ccccc2)N1c1nc(N)nc(N)c1C#N | 670 | 330 |
| 80 | 78 | 35 | 1720 | 56 |  |  | Cc1ccc(C#Cc2cccc3nc([C@@H]4CC[C@H](C)N4c4nc(N)nc(N)c4C#N)n(-c4ccccc4)c(=O)c23)cc1 | 680 | 1230 |
| 40 | 11 | 22 | 400 | -3 |  |  | C[C@H]1CC[C@@H](c2nc3cccc(C#Cc4ccccc4)c3c(=O)n2-c2ccccc2)N1c1nc(N)nc(N)c1C#N | 1840 | 670 |
| 67 | 36 | 44 | 400 | 7 |  |  | C[C@H]1CC[C@@H](c2nc3cccc(F)c3c(=O)n2-c2cccnc2)N1c1nc(N)nc(N)c1C#N | 560 | 120 |
| 41 | 44 | 5 | 700 |  |  |  | COc1ccc(-c2cccc3nc([C@@H]4CC[C@H](C)N4c4nc(N)nc(N)c4C#N)n(-c4ccccc4)c(=O)c23)cc1 | 1140 | 890 |
| 83 | 69 | 35 | 2620 | 64 |  |  | Cc1cccc(C#Cc2cccc3nc([C@@H]4CC[C@H](C)N4c4nc(N)nc(N)c4C#N)n(-c4ccccc4)c(=O)c23)c1 | 4130 | 3310 |
| 57 | 49 | 26 | 290 |  |  |  | C[C@H]1CC[C@@H](c2nc3cccc(-c4cncnc4)c3c(=O)n2-c2ccccc2)N1c1nc(N)nc(N)c1C#N | 1940 | 320 |
| 49 | 15 | -2 | 520 | 5 |  |  | C[C@H]1CC[C@@H](c2nc3cccc(C#Cc4ccsc4)c3c(=O)n2-c2ccccc2)N1c1nc(N)nc(N)c1C#N | 650 | 540 |
| 65 | 78 | 23 | 2470 | 62 |  |  | Cc1ccccc1C#Cc1cccc2nc([C@@H]3CC[C@H](C)N3c3nc(N)nc(N)c3C#N)n(-c3ccccc3)c(=O)c12 | 760 | 3580 |
| 29 | 41 | 11 | 600 | 6 |  |  | C[C@H]1CC[C@@H](c2nc3cccc(C#Cc4ccccn4)c3c(=O)n2-c2ccccc2)N1c1nc(N)nc(N)c1C#N | 790 | 320 |
